# Values joined by “and” are separate entries in the source; they are usually repeats but may differ in a detail not shown here. Equal values may be shown once.
# Target: isolated CBM40 from V. cholerae sialidase (Vibrio cholerae serotype O1, UniProt P0C6E9)
# Details: ITC, 25° C.; for n (number of binding sites): 10 mM HEPES pH7.4, 0.15M NaCl
# Sequence of isolated CBM40 from V. cholerae sialidase (P0C6E9 25-216): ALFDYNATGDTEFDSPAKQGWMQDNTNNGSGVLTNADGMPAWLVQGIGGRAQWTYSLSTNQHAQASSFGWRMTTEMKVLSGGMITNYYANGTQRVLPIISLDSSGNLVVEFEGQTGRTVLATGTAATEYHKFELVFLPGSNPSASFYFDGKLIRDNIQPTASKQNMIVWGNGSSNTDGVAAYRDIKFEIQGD
Compound,Ka,Kd [µM],TΔS [kcal/mol],ΔG [kcal/mol],ΔH,n (number of binding sites)
"CC(=O)N[C@H]1[C@H]([C@H](O)[C@H](O)CO)O[C@@](O[C@H](CO)[C@@H](O)[C@@H]2O[C@@](O[C@H]3[C@@H](O)[C@@H](CO)O[C@@H](O[C@H]4[C@H](O)[C@@H](O)C(O)O[C@@H]4CO)[C@@H]3O)(C(=O)O)C[C@H](O)[C@H]2NC(C)=O)(C(=O)O)C[C@@H]1O (stereo partly drawn) [DSL, disialyllactose]",10.2 ± 0.01 10^−4M,9.8,-5.7,-6.8,-12.5 kcal/mol and -12.5 ± 0.003 kcal/mol,0.92 and 0.92 ± 0.001
"CC(=O)N[C@H]1[C@H]([C@H](O)[C@H](O)CO)O[C@@](OC[C@H]2O[C@@H](O[C@H]3[C@H](O)[C@@H](O)[C@H](O)O[C@@H]3CO)[C@H](O)[C@@H](O)[C@H]2O)(C(=O)O)C[C@@H]1O [6′SL, 6′sialyllactose]",5.16 ± 0.03 10^−4M,19,-3.5,-6.4,-9.9 ± 0.002 kcal/mol,1.02 ± 0.001
"CC(=O)N[C@H]1[C@H]([C@H](O)[C@H](O)CO)O[C@@](O[C@H]2[C@@H](O)[C@@H](CO)O[C@@H](O[C@H]3[C@H](O)[C@@H](O)C(O)O[C@@H]3CO)[C@@H]2O)(C(=O)O)C[C@@H]1O (stereo partly drawn) [3′SL, 3′sialyllactose]",5.48 ± 0.05 10^−4M,18,-9.8,-6.5,-16.3 ± 0.05 kcal/mol,0.96 ± 0.002
"CC(=O)N[C@H]1[C@H](O[C@H]2[C@@H](O)[C@@H](CO)O[C@@H](O[C@@H]([C@H](O)[C@@H](O)C=O)[C@H](O)CO)[C@@H]2O)O[C@H](CO[C@]2(C(=O)O)C[C@H](O)[C@@H](NC(C)=O)[C@H]([C@H](O)[C@H](O)CO)O2)[C@@H](O)[C@@H]1O[C@@H]1O[C@H](CO)[C@H](O)[C@H](O[C@]2(C(=O)O)C[C@H](O)[C@@H](NC(C)=O)[C@H]([C@H](O)[C@H](O)CO)O2)[C@H]1O [DSLNT, disialyl-lacto-N-tetraose]",7.8 ± 0.06 10^−4M,13,-17.3,-6.7,-24 kcal/mol and -24.0 ± 0.007 kcal/mol,0.57 and 0.57 ± 0.001
